Source: patent US12150940B2, “WASp-protecting small molecules, compositions, methods and uses thereof in the treatment of innate and acquired immune-related disorders or conditions” (BAR ILAN UNIVERSITY, priority 2016, dated 2024)

Experiments:
N-WASp = target: T1, N-WASp (Homo sapiens, UniProt O00401); test: MST binding, YFP-N-WASp in HEK 293T cell lysate
T1 construct: expressed in transfected cells; host or cells: HEK 293T, transient transfection; unpurified cell lysate
Protocol: Diluted cell lysates of YFP-WASp/N-WASp/WAVE2-expressing HEK 293T cells were incubated with serially-diluted (100 μM-3 nM) SMCs. The mixed lysates and SMCs were then loaded into standard-treated Monolith™ capillaries and the fluorescence of the samples was measured by the Monolith NT.115 instrument at 60% MST power. Binding curves of WASp with SMC #6 (FIG. 3A), SMC #30 (FIG. 3B), SMC #33 (FIG. 3C), SMC #34 (FIG. 3D) and Y-27632 (FIG. 3E) or of N-WASp (FIG. 3F) or WAVE2 (FIG. 3G) with SMC #34 were generated by the NanoTemper Analysis 2.231 software. Normalized fluorescence (hot fluorescence/initial fluorescence) is plotted as a function of SMC concentration. […]
YFP-tagged WASp was obtained from cell lysates of Human Embryonic Kidney (HEK) 293T, transiently transfected with YFP-WASp/WAVE2/N-WASp by DNA-calcium phosphate co-precipitation as previously described (Reicher et al, 2012). […] After loading into the instrument (Monolith NT.115, NanoTemper), the samples were measured by standard protocols at 60% MST power. […] KD values were determined using the NanoTemper analysis software (NT Analysis 1.5.37 or 2.2.31).
Following this in silico screening, the inventors identified eight SMCs (#6, #23, #24, #25, #30, #32, #33, #34, see Table 1). […] The SMCs that specifically bind the degradation pocket of WASp were further evaluated by the inventors.

YFP-WASp R86C or Y107C = test: WASp expression in WASp knockout Jurkat lines expressing only YFP-WASp R86C or Y107C (western blot); assay type: cell-based, human; conditions: WAS−/−/WASp R86C or Y107C, vs control-treated cells
Protocol: The cells were then co-stimulated with anti-CD3 and anti-CD28 and analyzed by western blot as described in FIG. 14B. […] Relative protein expression was determined by densitometric analysis and is presented below the corresponding lanes.
CRISPR/CAS9 knockdown of endogenous WASp in T-cells was conducted according to published protocol (Ran F A et al, 2013). The vector pSpCas9 (BB)-2A-GFP (PX458) was purchased from Addgene, plasmid #48138. RNA guides were designed to target an intron/exon junction in the WAS gene, in order to eliminate gene silencing of exogenous YFP-WASp. RNA guide sequences aimed for WASp locus were constructed using the online CRISPR design tool algorithm (Zhang Lab) and NCBI gene. The guides which received the highest score were selected to be subcloned into the pSpCas9 (BB)-2A-GFP (PX458) vector.
The sequence present in WASp exons is bold. The sequence that is complementary to WASp intron (chromosome X, GRCh38.p7 nucleotides 1883-1890) is underlined. Knockout of endogenous WASp was conducted in Jurkat cells alone or in Jurkat cells stably expressing YFP-WASp containing the following mutations, R86C (as denoted by SEQ ID NO. 13 and encoded by SEQ ID NO. 14) or Y107C (as denoted by SEQ ID NO. 15 and encoded by SEQ ID NO. 16). […]
Cells exclusively expressing the YFP-WASp mutants were incubated with SMC #34 or solvent, stimulated and analyzed by western blot.

[1] = test system: WAS−/−/WASp R86C Jurkat T-cells; test: Lymphocyte activation (CD69, flow cytometry) in WAS−/−/WASp R86C cells; assay type: cell-based, human; conditions: cells exclusively expressing YFP-WASp R86C, PMA and Ionomycin, vs control
Protocol: (§1) 1×10^6 WASp knockout Jurkat T-cell line that expresses only exogenous YFP-WASp harboring the common human WAS and XLT mutation, R86C (WAS−/−/WASp R86C) was pretreated with either negative control or SMC #34. Cells that completely lack WASp expression (WAS^−/−) were also treated with the control. The cells were then stimulated with PMA and Ionomycin. After incubation, the cells were stained with PE-Cy5™-conjugated mouse anti-human CD69 and lymphocyte activation was measured by flow cytometry as described in Experimental procedures. Histogram of negative control versus SMC #34 is presented.
(§2) PBMCs or Jurkat cells (about 3×10^5 cells) were incubated for 4 h, at 37° C. with 50 ng/ml PMA and 250 ng/ml lonomycin, or 40 ng/ml PMA and 6 μM Ionomycin, respectively, or left untreated. After incubation, the cells were collected and stained with 1 μg/ml anti-active human LFA-1 antibody (purified from KIM127 hybridoma sup, ATCC Cat #: CRL-2838, Sigma) for 30 min in 37° C., followed by staining with Alexa488-Fluor goat anti-mouse IgG1 secondary antibody (Molecular Probes, Cat #: A-21121), 30 min on ice. Cells were then co-stained with PE-Cy5™-conjugated mouse anti-human CD69 (BD Pharmingen, Cat #: 555532) to measure lymphocyte activation.

WAS−/− Jurkat T-cells = test: Lymphocyte activation (CD69, flow cytometry), WAS−/− cells; assay type: cell-based, human
Protocol: as §1, §2

T1 sequence (O00401 whole entry, species assumed): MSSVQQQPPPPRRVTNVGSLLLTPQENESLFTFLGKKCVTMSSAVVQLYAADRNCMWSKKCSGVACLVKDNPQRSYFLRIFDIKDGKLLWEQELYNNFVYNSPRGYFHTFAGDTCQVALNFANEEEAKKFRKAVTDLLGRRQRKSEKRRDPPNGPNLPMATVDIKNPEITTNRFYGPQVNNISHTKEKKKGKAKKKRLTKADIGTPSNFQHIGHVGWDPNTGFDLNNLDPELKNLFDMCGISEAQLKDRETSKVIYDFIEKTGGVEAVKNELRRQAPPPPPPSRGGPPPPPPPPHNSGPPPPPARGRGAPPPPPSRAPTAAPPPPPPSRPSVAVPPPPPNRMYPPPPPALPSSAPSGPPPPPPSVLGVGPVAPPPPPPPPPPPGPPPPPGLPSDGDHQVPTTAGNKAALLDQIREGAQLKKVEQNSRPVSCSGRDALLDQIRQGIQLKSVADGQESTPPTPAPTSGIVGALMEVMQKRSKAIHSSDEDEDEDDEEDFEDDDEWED

CC1CCCC(C)N1C(=O)CSc1nnc(COc2cccc3cccnc23)o1 (stereo not shown) [SMC #34, 1-(2,6-dimethylpiperidin-1-yl)-2-[[5-(quinolin-8-yloxymethyl)-1,3,4-oxadiazol-2-yl]sulfanyl]ethanone]
binding to N-WASp (N-WASp): no binding
WASp expression in cells exclusively expressing the YFP-WASp mutants (YFP-WASp R86C or Y107C): increased WASp expression
lymphocyte activation (CD69) [1]: upregulation of lymphocyte activation
lymphocyte activation (CD69) (WAS−/− Jurkat T-cells): restored the activation
